Data on three molecules can be found in paper PMC10045663, “Synthesis, In Vitro Biological Evaluation of Antiproliferative and Neuroprotective Effects and In Silico Studies of Novel 16E-Arylidene-5α,6α-epoxyepiandrosterone Derivatives” (Biomedicines, 2023).

The test system of one assay is 5AR type 2. Also on record: method as in PMID 26377677. The conditions noted are these: read-out: IC50 against 5AR type 2; cited from earlier work.
Assay [1] concerns T47-D cells (breast cancer). Also on record: method as in PMID 23635011. Conditions: MTT assay, read-out: IC50 against T47-D cells; cited from earlier work. In general terms: Formazan colour is commonly taken as a measure of viable cells.
For assay [2], the system named is KB (nasopharyngeal epidermoid carcinoma). Also noted: method as in PMID 23635011. Conditions: read-out: IC50 against KB cells; cited from earlier work.
The test system of assay [3] is NHDF cells (normal human dermal fibroblasts). Put plainly: MTT cell proliferation assay, NHDF cells. It counts as cell-based. The conditions noted are these: Homo sapiens, NHDF, 72 h, non-tumoral cells, read-out: Estimated IC50, NHDF. The method, then:
(§1) LNCaP, PC-3, MCF-7, PNT1A, N27, and NHDF cells were obtained from the American Type Culture Collection (ATCC; Manassas, VA, USA) and were cultured in 75 cm^2 culture flasks at 37 °C in a humidified air incubator with 5% CO2. LNCaP, PC-3, PNT1A, and N27 cells, respectively, were cultured in RPMI 1640 medium (Sigma-Aldrich, Inc. St. Louis, MO, USA) with 10% fetal bovine serum (FBS; Sigma-Aldrich, Inc. St. Louis, MO, USA) and 1% of the antibiotic mixture of 10,000 U/mL penicillin G and […] streptomycin (Sp, Sigma-Aldrich, Inc. St. Louis, MO, USA). MCF-7 cells were cultured in DMEM medium (Sigma-Aldrich, Inc. St. Louis, MO, USA) supplemented with 10% fetal bovine serum (FBS; Sigma-Aldrich, Inc. St. Louis, MO, USA) and 1% antibiotic/antimycotic (10,000 U/mL penicillin G, […] streptomycin, and 25 µg/mL amphotericin B: Ab, Sigma-Aldrich, Inc. St. Louis, MO, USA). Finally, NHDF cells were cultured in RPMI 1640 medium supplemented with 10% FBS, 2 mM L-glutamine, 10 mM HEPES, 1 mM sodium pyruvate, and 1% of the antibiotic/antimycotic Ab, and these cells were used in passages 10th to 14th. For all cell types, the medium was renewed every 2 days until cells nearly reached the confluence state. When cells reach approximately 90–95% confluence, they are gently detached by trypsinization (trypsin-EDTA solution: 0.125 g/L of trypsin and 0.02 g/L of EDTA). Before each experiment, viable cells were counted in a Neubauer chamber by a trypan-blue exclusion assay and adequately diluted in the appropriate complete cell culture medium.
(§2) All tested compounds were dissolved in dimethyl sulfoxide (DMSO; Sigma-Aldrich, Inc. St. Louis, MO, USA) at a concentration of 10 mM and stored at 4 °C. From the mother-solutions, the diluted solutions of the compounds, in different concentrations, were prepared in the respective complete culture medium before each experiment.
(§3) After reaching a confluence state, cells were trypsinized and counted by the trypan-blue exclusion assay and then seeded with an initial density of 2 × 10^4 cells/mL in 96-well culture plates (Nunc, Apogent, Denmark) and left to adhere and grow for 48 h. Subsequently, the medium was removed, and the cells were treated with compound solutions (10 and 50 µM for preliminary studies and 0.01, 0.1, 1, 10, 50, and 100 µM for concentration-response studies) in complete culture medium for 72 h. 5-Fluorouracil (5-FU) was used as a positive control, and untreated cells were used as the negative control. Compounds leading to cell proliferation relative to control clearly below 50%, at 10 µM, or clearly below 25%, at 50 µM, in the screening studies were selected to concentration-response studies in tumoral cell lines. Each experiment was performed in quadruplicate and independently at least two times. The in vitro antiproliferative effects were evaluated by the MTT assay (Sigma-Aldrich, Inc. St. Louis, MO, USA). After the incubation period, the medium was removed, and 100 µL of phosphate buffer saline (PBS, NaCl 137 mM; KCl 2.7 mM; Na2HPO4 10 mM; and KH2PO4 1.8 mM in deionized water with a pH adjusted to 7.4) were used to wash the cells. Then, 100 µL of the MTT solution (5 mg/mL) was prepared in the appropriate serum-free medium and added to each well, followed by incubation for 4 h at 37 °C. Hereafter, the MTT containing medium was removed, and the formazan crystals were dissolved in DMSO. Then, the absorbance was measured at 570 nm using a xMarkTM microplate spectrophotometer from BIO-RAD Laboratories. Cell viability values were expressed as percentages relative to the negative control.

The subject of assay [4] is PNT1A (normal prostate cells). Put plainly: MTT cell proliferation assay, PNT1A cells. Format: cell-based. The conditions noted are these: Homo sapiens, PNT1A, 72 h, non-tumoral cells, read-out: Estimated IC50, PNT1A. The method, then:
as §1, §2, §3

Assay [5] concerns N27 (rat dopaminergic neuronal cells). Put plainly: MTT cell proliferation assay, N27 cells. Format: cell-based. The conditions noted are these: Rattus norvegicus, N27, 72 h, non-tumoral cells, read-out: Estimated IC50, N27. As to the method: as §1, §2, §3
The subject of assay [6] is LNCaP cells (androgen-dependent prostatic cancer). The assay can be described thus: MTT cell proliferation assay, LNCaP cells. The conditions noted are these: Homo sapiens, LNCaP; MTT, 72 h, tumoral cells; read-out: Estimated IC50, LNCaP. It counts as cell-based. As to the method: as §1, §2, §3
Assay [7] concerns PC-3 cells (androgen-independent prostatic cancer). Put plainly: MTT cell proliferation assay, PC-3 cells. Format: cell-based. The conditions noted are these: Homo sapiens, PC-3; MTT, 72 h, tumoral cells; read-out: Estimated IC50, PC-3. The method, then: as §1, §2, §3
In assay [8] the test system is MCF-7 cells (estrogen-responsive breast cancer cells). Put plainly: MTT cell proliferation assay, MCF-7 cells. It counts as cell-based. Conditions: Homo sapiens, MCF7; MTT, 72 h, tumoral cells; read-out: Estimated IC50, MCF-7. The method, then: as §1, §2, §3
Assay [9] relates to MCF-7 cells. The assay can be described thus: Immunocytochemistry assay, Ki67 staining. Format: cell-based. Conditions: 48 h. As to the method: MCF-7 cells were trypsinized and counted by the trypan-blue exclusion assay, and then cells were seeded with an initial density of 3 × 10^4 cells/mL in 24-well culture plates (Nunc, Apogent, Denmark) containing circular coverslips of 10 mm diameter. Following seeding (48 h), cells were treated with 1 and 10 µM concentrations of 5-FU, as positive controls, and steroid 19 for 48 h. Untreated cells were used as a negative control. After this period, photograph shots were acquired at an optical microscope coupled with a digital camera (Supplementary Material, S2). Subsequently, the medium was removed, and cells were fixed with 10% formalin (15 min, room temperature). After fixation, cells were washed three times with PBS, permeabilized, and blocked for non-specific binding sites for 1 h with 0.5% Triton X-100 and 6% BSA at room temperature. Cells were incubated at 4 °C with 30 μL/coverslip of primary antibody, rabbit polyclonal anti-Ki67 (1:50, Abcam Plc.), prepared in 0.3% BSA and 0.1% Triton X-100, overnight. Then, cells were washed three times with PBS and incubated for 1 h, at room temperature, with 30 μL/coverslip of a solution containing the secondary antibody, Alexa Fluor 488 donkey anti-rabbit (1:200, Life Technologies), and the nuclear marker Hoechst-33342 (1:500, Life Technologies) prepared in PBS. Lastly, the coverslips were washed three times with PBS, mounted on a drop of the fluoroshield mounting medium (Abcam, Plc.) on a microscope slide, and left to dry for 24 h. Photomicrographs were taken using an Axio Imager A1 microscope (Carl Zeiss, Göttingen, Germany) with the 40 × objective.

Assay [10] has as its system MCF-7 cells. The assay can be described thus: PI incorporation (propidium iodide staining). It counts as cell-based. Conditions: 48 h. The method, then: After 48 h of being seeded at the same conditions explained in the previous (Section 2.2.4), MCF-7 cells were treated with the steroidal derivatives 19 and 5-FU at 1 and 10 µM and maintained in culture for 48 h. Untreated cells were also used as a negative control. Subsequently, cells were incubated with 20 µL/per well of a propidium iodide solution (PI; 1 mg/mL in PBS; Sigma-Aldrich Co. LLC) for 25 min at 37 °C. Then, the medium was removed, and the cells were fixed with 10% formalin for 15 min at room temperature. Cells were washed three times with PBS and incubated with 30 µL/per coverslip of Hoechst-33342 (1:500) for 10 min. After incubation, cells were washed three times with PBS. Coverslips were mounted on a drop of the fluoroshield mounting medium on a microscope slide, left to dry for 24 h, and then visualized in a Zeiss Axio Imager A1 microscope with the 40× objective.

The test system of assay [11] is MCF-7 cells. The assay can be described thus: Nearest neighbor distance analysis with ImageJ. It counts as cell-based. Conditions: MCF-7, 1 and 10 µM, 48 h. An excerpt:
The nuclear measurements were achieved by converting 16-bit photomicrographs of Hoechst 33342-stained nuclei in different studied conditions into 8-bit images. Then, these imagens were autothresholded to binary photos using the default “Make binary” function of ImageJ (v. 1.49) software (NIH Image, Bethesda, MD, USA). Cell nuclei that are touching were separated and fragments were discarded based on area through “Analyze Particle” function. This function also provides several other information, such as nuclear area (NA), circumference, and form factor [26]. Furthermore, the “Nearest Neighbor Distance” (NND) was determined. This function allows measuring the distance between each cell nucleus and the nearest ones, providing information about cell distribution.

Each structure is given as a SMILES string.

What is called IC50 is the concentration at which inhibition is half-maximal. For the molecule `C[C@]12CCC3C(C[C@@H]4O[C@@]45C[C@@H](O)CC[C@]35C)C1CC=C2C(=O)COC(=O)c1ccc(F)cc1` (stereo partly drawn) [21(p-fluoro)benzoyloxy-5α,6α-epoxy-3β-hydroxypregna-16-en-20-one], the IC50 in the assay on 5AR type 2 is 0.179 µM.

As for `C[C@]12CC[C@H](O)CC1=CCC1C2CC[C@]2(C)C(=O)/C(=C/c3cccc(Cl)c3)CC12` (some centres unmarked) [reference compound], the IC50 in assay [1] was 1.7 µM; in assay [2] it was 0.6 µM.

As to `O=c1[nH]cc(F)c(=O)[nH]1` [Compound 5-FU, 5-Fluorouracil, reference compound], the half-maximal inhibitory concentration (IC50) in assay [3] was 6.34 µM; in assay [4] it was 6.48 µM; in [5] it was 3.19 µM; in [6] it was 9.43 µM; in assay [7], 21.2 µM; in assay [8] it was 6.3 µM. The “Ki67-positive cells relative to control” value is recorded as “none of the compounds significantly affected” in the assay on MCF-7 cells [9] (MCF-7, 1 µM) and “statistically significant decrease” with MCF-7 cells [9] (MCF-7, 10 µM). For the same molecule, the “PI-positive cells relative to the negative control” value in the assay on MCF-7 cells [10] (MCF-7, 1 µM) was “no significant effect”; in the assay on MCF-7 cells [10] (MCF-7, 10 µM), “significantly increase”. In the assay on MCF-7 cells [11], the “cell distribution (nearest neighbor distance, NND)” value is reported as “more random distribution with nuclei more spaced”.
